In assay [1] the target is T1, LANCL2 (Homo sapiens, UniProt Q9NS86).
T1 sequence (Q9NS86 1-450): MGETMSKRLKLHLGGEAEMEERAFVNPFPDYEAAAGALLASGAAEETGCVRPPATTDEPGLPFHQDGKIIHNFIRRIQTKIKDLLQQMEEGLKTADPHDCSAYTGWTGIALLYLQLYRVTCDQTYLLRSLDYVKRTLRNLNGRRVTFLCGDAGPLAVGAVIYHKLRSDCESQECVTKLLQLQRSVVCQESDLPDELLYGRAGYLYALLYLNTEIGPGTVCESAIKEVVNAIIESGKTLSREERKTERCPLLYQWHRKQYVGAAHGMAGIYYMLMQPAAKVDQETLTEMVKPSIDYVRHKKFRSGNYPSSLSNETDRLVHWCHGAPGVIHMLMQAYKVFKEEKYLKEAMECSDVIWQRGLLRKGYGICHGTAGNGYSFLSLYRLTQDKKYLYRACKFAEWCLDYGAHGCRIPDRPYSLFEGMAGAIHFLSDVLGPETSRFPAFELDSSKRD
The settings on record: rows marked REF 18; read-out: SPR Affinity to LANCL2 (Kd); cited from earlier work.

The target of assay [2] is T1, LANCL2. Description: Surface plasmon resonance (SPR) binding to LANCL2. The settings on record: Tables 1A and 1B; read-out: SPR Affinity to LANCL2 (Kd). (In general: SPR reads the build-up and loss of mass on a sensor chip optically.)
Assay [3] relates to CD4+ T cells. The experiment in a line: Differentiation of CD4+ T cells into Tregs with metabolic modulators. Format: cell-based, mice. The settings on record: BT-11 with PS-48 (5 μM), DASA-58 (10 μM) or thapsigargin (10 nM). On the procedure:
(§1) Spleens from WT and Lancl2−/− mice were excised and crushed to generate a single cell suspension. CD4+ T cell fraction was enriched by negative selection via magnetic sorting with the BD IMag system. Naïve CD4+ T cells were obtained by incubation with a biotinylated CD62L antibody followed by conjugation to streptavidin coated magnetic beads. Naïve cells were incubated for 48 hours within anti-CD3 coated tissue culture plates in complete IMDM media containing all-trans retinoic acid and purified TGF-β to stimulate differentiation into Tregs. […] Metabolic modulators, PS-48 (5 μM), DASA-58 (10 μM), and thapsigargin (10 nM), were added at 0 h. […] Six hours prior to assay, cells were stimulated with PMA and ionomycin. Cells were collected from plate for downstream analysis by flow cytometry, gene expression and metabolic assay.

The subject of assay [4] is Mdr1a−/− mice. Description: Mdr1a−/− mice with PS-48 injections (in vivo validation of immunometabolic effect). Particulars: weekly intraperitoneal injections of PS-48. On the procedure:
(§2) Colons and cells were suspended within assay specific buffer and homogenized for 10 seconds. Homogenate was centrifuged for 10 minutes at 10,000×g. For enzyme activity assays, supernatant was collected and plated. Samples were mixed with enzyme developer and substrate. Colorimetric detection of NADH production was measured using a BioTek μQuant plate reader in combination with Gen5 software. For PEP assay, supernatant was deproteinized using perchloric acid mediated purification. Samples were plated and mixed with a probe, converter, developer mix. PEP concentration was measured by absorbance quantification on plate reader.
To validate the in vitro immunometabolic findings, Mdr1a−/− mice were given weekly intraperitoneal injections of PS-48 or vehicle control. […] Similar patterns were observed within the DSS model.

In assay [5] the test system is WT Tregs. Description: Metabolic analysis (pyruvate kinase, pyruvate dehydrogenase, PEP) in in vitro Tregs. It is filed as cell-based, mice. The settings on record: PS-48 (5 μM). The method, then: as §2
as §1, with “Cells were collected from plate for downstream analysis by flow cytometry, gene expression and metabolic assay.” left out

Assay [6] has as its system PBMCs from Crohn's disease donors. Description: PBMCs isolated from Crohn's disease donors, 24 hour culture. Particulars: presence of thapsigargin. Format: cell-based, human. The method, then:
Fresh de-identified whole blood was obtained from commercial vendor. Blood was diluted and purified for PBMC fraction by LeukoSep tube. Remaining red blood cells were lysed by hypotonic lysis. […] For siRNA experiments, cells were first incubated with an OriGene 3-mer LANCL2 siRNA or scrambled control suspended within ViromerGreen transfection reagent for 6 hours. […] Cells were stimulated with PMA and ionomycin six hours prior to assay.
Whole blood was obtained from Crohn's disease patients, clinically categorized as mild to moderate disease.

The subject of assay [7] is C. difficile. The experiment in a line: C. difficile culture in chopped meat media (anti-microbial properties). The settings on record: 10 ug/mL.

Each structure is given as a SMILES string. Where two headings read alike, the source gives them in different places.

For orientation: Kd means the free concentration of one partner at which half of the binding sites on the other are occupied at equilibrium, for simple one-to-one binding. Consider `CC1=CC(=O)CC(C)(C)[C@]1(O)/C=C/C(C)=C\C(=O)O` [ABA, abscisic acid], for which the Kd in assay [1] was 2.3 µM.

Turning to `O=C(c1cccc(-c2nc3ccccc3[nH]2)c1)N1CCN(C(=O)c2cccc(-c3nc4ccccc4[nH]3)c2)CC1` [BT-4], in assay [2], the Kd is 84.3 µM.

As for `O=C(Nc1ccc(NC(=O)c2cccc(-c3nc4ccccc4[nH]3)c2)cc1)c1cccc(-c2nc3ccccc3[nH]2)c1` [BT-6], the Kd in assay [2] was found to be 18.2 µM.

As for `O=C(c1cccc(-c2nc3ccccc3[nH]2)n1)N1CCN(C(=O)c2cccc(-c3nc4ccccc4o3)n2)CC1` [BT-15], the Kd in assay [2] is 21.4 µM.

For `O=C1CC=C(/C=C/c2ccc(C(=O)O)o2)CC1` [BT-ABA-5a], the Kd in assay [2] is 11.7 µM.

Take `O=C1CCC(O)(/C=C/c2cccc(C(=O)O)n2)CC1` [BT-ABA-13]: in assay [2], the Kd came to 4.65 µM.

Regarding `O=C1CCC(O)(/C=C/c2cc(C(=O)O)ccn2)CC1` [BT-ABA-16], the Kd in assay [2] is 4.85 µM.

In the case of `O=C1CCC(O)(/C=C/c2ccc(C(=O)O)o2)CC1` [BT-ABA-25], in assay [2], the Kd came to 177 µM.

As for `O=C1CCC(O)(/C=C/c2cccc(C(=O)O)c2)CC1` [BT-BA-6], the Kd in assay [2] was determined as 163 µM.

Regarding `O=C(Nc1cccc(-c2nc3c([nH]2)C=CCC3)c1)c1ccc(C(=O)Nc2cccc(-c3nc4c([nH]3)C=CCC4)c2)cc1` [Compound 61610], in assay [1], the Kd was 6.2 µM.

As to `Nc1cccc(S(=O)(=O)N2CCCN(S(=O)(=O)c3ccc4c(c3)OCCO4)CC2)c1` [DASA-58], the Treg cell differentiation entry in assay [3] is “promotes high level differentiation in both treated and untreated cells”.

On to `O=C(O)/C=C(/CCc1ccc(Cl)cc1)c1ccccc1` [PS-48, reference compound], for which the Treg cell differentiation entry in assay [3] is given as “abrogates the increased differentiation of Tregs generated by BT-11”. Further, the “BT-11-induced changes across clinical, cellular and metabolic measures” value in assay [4] is “effectively blocked the BT-11-induced changes”. Besides, the “BT-11 induced change in PEP and PDH activity under PS-48” value in assay [5] is “abrogated by treatment with PS-48”.

In the case of `C/C=C(/C)C(=O)O[C@H]1C(C)=C2[C@H]([C@@H]1OC(=O)CCCCCCC)[C@@](C)(OC(C)=O)C[C@H](OC(=O)CCC)[C@@]1(O)[C@H]2OC(=O)[C@@]1(C)O` [thapsigargin, reference compound], the Treg cell differentiation result in assay [3] is “diminishes the BT-11 induced increase in Treg cell differentiation”. For the same compound, the “induction of FOXP3+ cells in PBMCs treated with BT-11” value in assay [6] was “prevented the increased induction of FOXP3+ cells”.

Take `CN[C@H](CC(C)C)C(=O)N[C@H]1C(=O)N[C@@H](CC(N)=O)C(=O)N[C@H]2C(=O)N[C@H]3C(=O)N[C@H](C(=O)N[C@H](C(=O)O)c4cc(O)cc(O)c4-c4cc3ccc4O)[C@H](O)c3ccc(c(Cl)c3)Oc3cc2cc(c3O[C@@H]2O[C@H](CO)[C@@H](O)[C@H](O)[C@H]2O[C@H]2C[C@](C)(N)[C@H](O)[C@H](C)O2)Oc2ccc(cc2Cl)[C@H]1O` [vancomycin, reference compound]: the “reduction of colony forming units” value in assay [7] worked out at 95%. For the same compound, the colony forming units entry in assay [7] (from 4 million) is recorded as “under 200,000”.
